Molecular target: T1, PI3Kδ (p110δ) (Homo sapiens, UniProt O00329)
T1 construct: gene PIK3CD
Test: FRET-based in vitro kinase assay; class I PI3K binding also seen in KinomeScan ATP-site competition panel ([…])
Assay type: biochemical

T1 sequence (O00329 whole entry): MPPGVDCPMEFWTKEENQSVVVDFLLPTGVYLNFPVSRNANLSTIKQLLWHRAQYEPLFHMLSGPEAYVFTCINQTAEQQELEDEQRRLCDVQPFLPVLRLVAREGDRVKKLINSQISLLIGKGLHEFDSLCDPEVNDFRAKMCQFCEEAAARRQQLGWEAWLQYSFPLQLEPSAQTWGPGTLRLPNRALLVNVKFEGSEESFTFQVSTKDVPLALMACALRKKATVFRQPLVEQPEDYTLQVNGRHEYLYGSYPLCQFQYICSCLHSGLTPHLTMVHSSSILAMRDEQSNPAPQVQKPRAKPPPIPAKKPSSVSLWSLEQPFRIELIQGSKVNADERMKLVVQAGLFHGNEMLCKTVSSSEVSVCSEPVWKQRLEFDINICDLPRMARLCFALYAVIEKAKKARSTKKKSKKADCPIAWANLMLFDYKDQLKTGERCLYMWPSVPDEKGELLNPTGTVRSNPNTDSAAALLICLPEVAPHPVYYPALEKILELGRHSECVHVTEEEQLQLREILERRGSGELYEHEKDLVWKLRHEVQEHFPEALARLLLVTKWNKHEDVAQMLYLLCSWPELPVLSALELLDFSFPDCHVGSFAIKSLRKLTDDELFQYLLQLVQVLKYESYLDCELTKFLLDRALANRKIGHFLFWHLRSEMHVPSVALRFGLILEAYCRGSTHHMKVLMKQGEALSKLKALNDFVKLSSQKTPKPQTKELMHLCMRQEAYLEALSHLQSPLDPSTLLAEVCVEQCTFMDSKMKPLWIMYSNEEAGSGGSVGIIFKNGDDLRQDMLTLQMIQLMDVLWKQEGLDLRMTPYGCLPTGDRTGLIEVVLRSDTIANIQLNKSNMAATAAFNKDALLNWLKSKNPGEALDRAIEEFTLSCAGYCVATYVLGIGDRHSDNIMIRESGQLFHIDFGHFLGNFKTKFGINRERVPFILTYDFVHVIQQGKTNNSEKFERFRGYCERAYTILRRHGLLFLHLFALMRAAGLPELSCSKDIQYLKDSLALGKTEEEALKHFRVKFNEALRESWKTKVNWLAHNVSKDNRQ

For GS-649443 [Compound B], which IC50 is on record?
The IC50 was 280 pM.
